Reference: patent publication US8410161B2, “Thioxanthone ring system derivatives” (National Defense Medical Center, priority 2010, dated 2013)

Key:
Assay type in all cases: cell-based
A control cell lines = test: MTT assay, A control cell lines (lung cancer cell)
From the text: Please refer to Table 1 and FIGS. 4A-4C. According to a MTT assay (Table 1), various cell viabilities of the A control cell lines can be obtained and illustrated in FIG. 4A while the compounds No. 2˜30 are used to treat A control cell lines, wherein A control cell lines are lung cancer cell.

A3 cell lines = test: MTT assay, A3 cell lines (lung cancer stem cell); details: for inhibition effect on A3 cell line (in words): summary of MTT cell viabilities
From the text: Please to FIG. 4B, various cell viabilities of the A3 cell lines can be obtained through the MTT assay and illustrated in FIG. 4B while the compounds No. 1˜30 are used to treat A3 cell lines, wherein A3 cell lines are lung cancer stem cell.

[1] = MTT assay, HEL299 fibroblast; details: human
From the text: (§1) Please refer to FIG. 4C, various cell viabilities of the HEL299 cell lines can be obtained through the MTT assay while the compounds No. 1˜30 are used to treat HEL299 cell lines, wherein HEL299 cell lines are fibroblast.

HEL299 fibroblast = test: MTT assay, HEL299 fibroblast
From the text: as §1

Row | SMILES | cell viabilities of A control cell lines (MTT assay) (A control cell lines) [%] | cell viabilities of A3 cell lines (MTT assay) (A3 cell lines) [%] | inhibition effect on A3 cell line (in words) (A3 cell lines) | viability [1] [%] | cytotoxicity effect on the normal fibroblast (in words) (HEL299 fibroblast)
1 | CC(C)Sc1ccc2c(=O)c3ccccc3sc2c1Cl [No. 4, 4-Chloro-3-(isopropylthio)-9H-thioxanthen-9-one] | 91.1 ± 2.02 | 56.1 | inhibition effect | 103 | without the cytotoxicity effect
2 | Cc1ccc(Sc2ccc3c(=O)c4ccccc4sc3c2Cl)c(C)c1 [No. 10, 4-Chloro-3-(2,4-dimethylphenylthio)-9H-thioxanthen-9-one] | 104 ± 11.0 | 59.9 | inhibition effect | 108 | without the cytotoxicity effect
